Measurements as given in the supplement of paper PMC10307832.

Key:
Experiment in all cases: relative viability (nuclei count vs DMSO), 5 days (fraction); higher = more cells survive
[1] = compound: O=C(O)c1ccc2c(c1)nc(Nc1cccc(Cl)c1)c1ccncc12 [Silmitasertib] + Cc1nc(NC(=O)N2CCC[C@H]2C(N)=O)sc1-c1ccnc(C(C)(C)C(F)(F)F)c1 [Alpelisib] (partner 2 µM)
Procedure, shortened: (§1)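 Lung cancer cell lines in 1536-well plates got either a single drug or a fixed anchor-drug dose together with five library-drug doses (not always all listed) in √10 steps, by pin tool, on the day after seeding. Nuclei were counted after 5 days, and relative viability is the treated-to-vehicle ratio of nuclei counts. Values are medians of duplicate plates.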

[2] = compound: O=C(O)c1ccc2c(c1)nc(Nc1cccc(Cl)c1)c1ccncc12 [Silmitasertib] + Nc1nc2[nH]cc(CCc3ccc(C(=O)N[C@@H](CCC(=O)O)C(=O)O)cc3)c2c(=O)[nH]1 [Pemetrexed] (partner 0.2 µM)
Procedure, shortened: as §1

[3] = compound: O=C(O)c1ccc2c(c1)nc(Nc1cccc(Cl)c1)c1ccncc12 [Silmitasertib] + Nc1ncn([C@H]2C[C@H](O)[C@@H](CO)O2)c(=O)n1 [Decitabine] (partner 2 µM)
Procedure, shortened: as §1

[4] = compound: O=C(O)c1ccc2c(c1)nc(Nc1cccc(Cl)c1)c1ccncc12 [Silmitasertib] + O=C(CCCCCCC(=O)Nc1ccccc1)NO [Vorinostat] (partner 1 µM)
Procedure, shortened: as §1

Silmitasertib + Olaparib = compound: O=C(O)c1ccc2c(c1)nc(Nc1cccc(Cl)c1)c1ccncc12 [Silmitasertib] + O=C(c1cc(Cc2n[nH]c(=O)c3ccccc23)ccc1F)N1CCN(C(=O)C2CC2)CC1 [Olaparib] (partner 8 µM)
Procedure, shortened: as §1

| Cell Line | relative viability ([1]; first compound 0.04 µM) | relative viability ([1]; first compound 0.4 µM) | relative viability ([1]; first compound 1.265 µM) | relative viability ([1]; first compound 4 µM) | relative viability ([2]; first compound 0.04 µM) | relative viability ([2]; first compound 0.4 µM) | relative viability ([2]; first compound 1.265 µM) | relative viability ([2]; first compound 4 µM) | relative viability ([3]; first compound 0.04 µM) | relative viability ([3]; first compound 0.4 µM) | relative viability ([3]; first compound 1.265 µM) | relative viability ([3]; first compound 4 µM) | relative viability ([4]; first compound 0.04 µM) | relative viability ([4]; first compound 0.4 µM) | relative viability ([4]; first compound 1.265 µM) | relative viability ([4]; first compound 4 µM) | relative viability (Silmitasertib + Olaparib; first compound 0.04 µM) | relative viability (Silmitasertib + Olaparib; first compound 0.4 µM) | relative viability (Silmitasertib + Olaparib; first compound 1.265 µM) | relative viability (Silmitasertib + Olaparib; first compound 4 µM) |
| --- | --- | --- | --- | --- | --- | --- | --- | --- | --- | --- | --- | --- | --- | --- | --- | --- | --- | --- | --- | --- |
| NCI-H647 | 1.37 | 1.09 | 0.688 | 0.465 | 0.183 | 0.16 | 0.148 | 0.134 | 0.411 | 0.387 | 0.344 | 0.288 | 0.868 | 0.666 | 0.672 | 0.704 | 0.625 | 0.431 | 0.57 | 0.325 |
| NCI-H2009 | 1.17 | 1.03 | 1.03 | 0.707 | 1.09 | 0.98 | 1.13 | 0.908 | 0.382 | 0.39 | 0.392 | 0.371 | 0.787 | 0.681 | 0.795 | 0.751 | 0.747 | 0.638 | 0.756 | 0.595 |
| EPLC-272H | 1.04 | – | 0.632 | 0.763 | 0.374 | 0.359 | 0.385 | 0.122 | 0.475 | – | 0.296 | 0.348 | 0.454 | 0.685 | 0.391 | 0.13 | 1.02 | 0.563 | 0.489 | 0.0904 |
| NCI-H520 | 0.932 | 1.01 | 1.16 | 0.832 | 0.716 | 0.716 | 0.694 | 0.566 | 0.586 | 0.578 | 0.528 | 0.502 | 0.773 | 0.907 | 0.912 | 0.802 | 0.365 | 0.318 | 0.295 | 0.262 |
| NCI-H2405 | 0.935 | 0.688 | 0.639 | 0.775 | 1.12 | 1 | 0.73 | 0.86 | 0.779 | 0.735 | 0.716 | 0.794 | 1.1 | 0.927 | 0.839 | 0.519 | 0.896 | 0.717 | 0.851 | 0.756 |
| NCI-H2085 | 1.02 | 0.806 | 0.81 | 0.878 | 1.02 | 0.647 | 0.833 | 0.867 | 0.594 | 0.553 | 0.553 | 0.459 | 0.837 | 0.638 | 0.725 | 0.548 | 0.805 | 0.529 | 0.731 | 0.684 |
| NCI-H322M | 0.763 | 0.71 | 0.559 | 0.465 | 0.666 | 0.536 | 0.595 | 0.482 | 0.727 | 0.686 | 0.674 | 0.649 | 0.994 | 0.936 | 0.968 | 0.653 | 0.7 | 0.608 | 0.456 | 0.39 |
| NCI-H1944 | 0.892 | 0.765 | 0.774 | 0.884 | 0.551 | 0.447 | 0.615 | 0.77 | 0.442 | 0.467 | 0.46 | 0.497 | 0.595 | 0.459 | 0.647 | 0.531 | 0.404 | 0.33 | 0.495 | 0.587 |
| LC-2-ad | 0.78 | 0.87 | 0.783 | 0.827 | 0.288 | 0.264 | 0.26 | 0.227 | 0.836 | 0.794 | 0.689 | 0.665 | 0.712 | 0.573 | 0.753 | 0.3 | 0.712 | 0.522 | 0.754 | 0.663 |
| NCI-H358 | 0.916 | 0.786 | 0.65 | 0.48 | 0.186 | 0.164 | 0.18 | 0.131 | 0.22 | 0.217 | 0.199 | 0.199 | 0.774 | 0.652 | 0.677 | 0.692 | 0.696 | 0.396 | 0.483 | 0.36 |
| NCI-H2170 | 0.805 | 0.648 | 0.697 | 0.771 | 0.271 | 0.258 | 0.25 | 0.282 | 0.477 | 0.46 | 0.457 | 0.441 | 0.81 | 0.503 | 0.73 | 0.683 | 0.56 | 0.299 | 0.529 | 0.574 |
| A-427 | 1.07 | – | 1.28 | 1.05 | 1.04 | 0.826 | 1.05 | 0.669 | 0.525 | 0.554 | 0.461 | 0.421 | 0.87 | 0.761 | 0.954 | 0.568 | 0.87 | 0.616 | 0.762 | 0.579 |
| NCI-H1666 | 1.03 | 0.781 | 0.61 | 0.505 | 0.89 | 0.795 | 0.72 | 0.63 | 0.804 | 0.67 | 0.498 | 0.656 | 1.06 | 0.845 | 0.855 | 0.689 | 0.713 | 0.577 | 0.566 | 0.61 |
| LOU-NH91 | 0.8 | 0.614 | 0.612 | 0.593 | 0.357 | 0.383 | 0.368 | 0.457 | 0.876 | 0.801 | 0.754 | 0.782 | 1.06 | 0.874 | 0.784 | 0.514 | 0.941 | 0.839 | 0.8 | 0.814 |
| ABC-1 | 1.11 | 0.832 | 0.546 | 0.381 | – | – | – | – | 1.44 | 1.05 | 0.686 | 0.922 | 1.22 | 0.733 | 0.642 | 0.553 | 0.814 | 0.863 | 0.777 | 0.738 |
| NCI-H1651 | 0.951 | 1.03 | 0.952 | 0.86 | 0.625 | 0.38 | 0.247 | 0.665 | 0.65 | 0.542 | 0.197 | 0.692 | 0.572 | 0.456 | 0.335 | 0.594 | 0.171 | 0.139 | 0.184 | 0.186 |
